Assay results reported in ChEMBL document CHEMBL1154238, “Identification of specific small molecule ligands for stem loop 3 ribonucleic acid of the packaging signal Psi of human immunodeficiency virus-1” (J Med Chem, 2009).
Activity calls are given as the source filed them. The rule behind the calls is not given here.

Key:
Nucleic Acid [1] = assay: Binding affinity to fluorescein-labeled 20mer stem loop 3 HIV1 RNA of packaging element psi by titration method; assay type: nucleic-acid assay, Human immunodeficiency virus 1
Nucleic Acid [2] = assay: Binding affinity to fluorescein-labeled HIV1 duplex RNA of packaging element psi by titration method; assay type: nucleic-acid assay, Human immunodeficiency virus 1
Nucleic Acid [3] = assay: Binding affinity to fluorescein-labeled stem loop 3 HIV1 duplex RNA of packaging element psi by titration method; assay type: nucleic-acid assay, Human immunodeficiency virus 1
Nucleic Acid [4] = assay: Selectivity ratio of Kd for fluorescein-labeled HIV1 single-stranded RNA of packaging element psi to Kd for fluorescein-labeled 20mer stem loop 3 HIV1 RNA of packaging element psi; assay type: nucleic-acid assay; details: Human immunodeficiency virus 1
Nucleic Acid [5] = assay: Binding affinity to fluorescein-labeled HIV1 single-stranded RNA of packaging element psi by titration method; assay type: nucleic-acid assay, Human immunodeficiency virus 1
Nucleic Acid [6] = assay: Selectivity ratio of Kd for fluorescein-labeled HIV1 duplex RNA of packaging element psi to Kd for fluorescein-labeled 20mer stem loop 3 HIV1 RNA of packaging element psi; assay type: nucleic-acid assay; details: Human immunodeficiency virus 1
[7] = Solubility in water; assay type: physicochemical; details: buffer
[8] = Solubility in DMSO; assay type: physicochemical
Nucleic Acid [9] = assay: Selectivity ratio of Kd for HIV1 single-stranded RNA to Kd for 20mer stem loop 3 HIV1 RNA; assay type: nucleic-acid assay; details: Human immunodeficiency virus 1
Nucleic Acid [10] = assay: Binding affinity to fluorescein-labeled 14mer stem loop 3 HIV1 RNA of packaging element psi by titration method; assay type: nucleic-acid assay, Human immunodeficiency virus 1
Nucleic Acid [11] = assay: Selectivity ratio of Kd for fluorescein-labeled HIV1 duplex RNA of packaging element psi to Kd for fluorescein-labeled 14mer stem loop 3 HIV1 RNA of packaging element psi; assay type: nucleic-acid assay; details: Human immunodeficiency virus 1
Nucleic Acid [12] = assay: Selectivity ratio of Kd for fluorescein-labeled HIV1 single-stranded RNA of packaging element psi to Kd for fluorescein-labeled 14mer stem loop 3 HIV1 RNA of packaging element psi; assay type: nucleic-acid assay; details: Human immunodeficiency virus 1
Nucleic Acid [13] = assay: Binding affinity to stem loop 3 HIV1 RNA of packaging element psi assessed as RNA intercalation at 55 to 220 uM by CD spectroscopy; assay type: nucleic-acid assay; details: Human immunodeficiency virus 1
Nucleic Acid [14] = assay: Stabilization of stem loop 3 HIV1 RNA of packaging element psi assessed as melting temperature by UV spectroscopy; assay type: nucleic-acid assay; details: Human immunodeficiency virus 1
Nucleic Acid [15] = assay: Binding affinity to strong binding site of unlabeled stem loop 2 HIV1 RNA of packaging element psi by isothermal titration calorimetry; assay type: nucleic-acid assay, Human immunodeficiency virus 1
Nucleic Acid [16] = assay: Stabilization of stem loop 3 HIV1 RNA of packaging element psi assessed as protection against RNase 1-mediated cleavage at 500 uM by footprinting method; assay type: nucleic-acid assay; details: Human immunodeficiency virus 1
Nucleic Acid [17] = assay: Binding affinity to fluorescein-labeled stem loop 2 HIV1 RNA of packaging element psi by titration method; assay type: nucleic-acid assay, Human immunodeficiency virus 1
Nucleic Acid [18] = assay: Binding affinity to 2-aminopurine-labeled stem loop 4 HIV1 RNA of packaging element psi by titration method; assay type: nucleic-acid assay, Human immunodeficiency virus 1
Nucleic Acid [19] = assay: Binding affinity to fluorescein-labeled stem loop 3 HIV1 RNA of packaging element psi after 72 hrs by mass spectroscopy; assay type: nucleic-acid assay; details: Human immunodeficiency virus 1
Nucleic Acid [20] = assay: Binding affinity to weaker binding site of unlabeled stem loop 2 HIV1 RNA of packaging element psi by isothermal titration calorimetry; assay type: nucleic-acid assay, Human immunodeficiency virus 1
Nucleic Acid [21] = assay: Binding affinity to fluorescein-labeled stem loop 3 HIV1 RNA of packaging element psi by titration method; assay type: nucleic-acid assay; details: Human immunodeficiency virus 1
Nucleic Acid [22] = assay: Selectivity ratio of Kd for fluorescein-labeled stem loop 4 HIV1 RNA of packaging element psi to Kd for fluorescein-labeled 14mer stem loop 3 HIV1 RNA of packaging element psi; assay type: nucleic-acid assay; details: Human immunodeficiency virus 1
Nucleic Acid [23] = assay: Selectivity ratio of Kd for fluorescein-labeled stem loop 2 HIV1 RNA of packaging element psi to Kd for fluorescein-labeled 14mer stem loop 3 HIV1 RNA of packaging element psi; assay type: nucleic-acid assay; details: Human immunodeficiency virus 1
Nucleic Acid [24] = assay: Binding affinity to stem loop 3 HIV1 RNA of packaging element psi assessed as RNA intercalation at 55 to 110 uM by CD spectroscopy; assay type: nucleic-acid assay; details: Human immunodeficiency virus 1
Nucleic Acid [25] = assay: Binding affinity to fluorescein-labeled stem loop 4 HIV1 RNA of packaging element psi by titration method; assay type: nucleic-acid assay, Human immunodeficiency virus 1
Nucleic Acid [26] = assay: Binding affinity to unlabeled 20mer stem loop 3 HIV1 RNA of packaging element psi by titration method; assay type: nucleic-acid assay, Human immunodeficiency virus 1

For `O=C1Oc2ccccc2C(=O)/C1=C/N1C(=O)N/C(=C\c2ccccc2O)C1=O`, the Kd (Nucleic Acid [1]) was 163000 nM.
`C[N+](C)(C)CCN[N+]1(C)CCCc2ccccc21` (stereo unspecified) gave a Kd (Nucleic Acid [2]) of 6.1 µM, a Kd (Nucleic Acid [1]) of 1500 nM and a Kd (Nucleic Acid [3]; read-out: Kd) of 14 µM. It also gave a Selectivity ratio (Nucleic Acid [4]) of 4, a Kd (Nucleic Acid [5]) of 7.8 µM and a Selectivity ratio (Nucleic Acid [6]) of 4.
With `Cc1ccn2c(CCc3nnc4cc(C)ccn34)nnc2c1` the solubility [7] was “Insoluble” and the solubility [8] was “Insoluble”.
Compound `COc1ccc2nc3cc(Cl)ccc3c(Nc3ccc(O)c(CN4CCN(C)CC4)c3)c2c1` has a Kd (Nucleic Acid [2]) of 0.87 µM, a Kd (Nucleic Acid [1]) of 670 nM and a Kd (Nucleic Acid [5]) of 3 µM. The Selectivity ratio (Nucleic Acid [9]) was 4.4.
With `CCOC(=O)c1c2c(n3ccccc13)C(=O)c1ccccc1C2=O` the Kd (Nucleic Acid [2]) was 3 µM, the Kd (Nucleic Acid [1]) was 1400 nM and the Kd (Nucleic Acid [3]) was “Not Active”. The Selectivity ratio (Nucleic Acid [4]) was 2, the Kd (Nucleic Acid [5]) was 2.3 µM and the Selectivity ratio (Nucleic Acid [6]) was 2.
With `C[N+]1(C)C2CC(OC(=O)C(CO)c3ccccc3)CC1C1OC12` (stereo unspecified) the Kd (Nucleic Acid [10]) was 157 µM.
Compound `COC1=C(C)C(=O)c2c(c(COC(N)=O)c3n2CC2C3N2C)C1=O` (stereo unspecified) has a Selectivity ratio (Nucleic Acid [11]) of 3.5, a Kd (Nucleic Acid [2]) of 345 µM and a Selectivity ratio (Nucleic Acid [12]) of 50. The Kd (Nucleic Acid [10]) was 98 µM, the Activity (Nucleic Acid [13]) was “Active” and the Tm (Nucleic Acid [14]) was 79.2 °C. The Kd (Nucleic Acid [15]) was 110 µM, the Activity (Nucleic Acid [16]) was “Active” and the Kd (Nucleic Acid [5]) was over 4900 µM. The Kd (Nucleic Acid [17]) was “Not Active”, the Kd (Nucleic Acid [18]) was 79 µM and the Activity (Nucleic Acid [19]) was “Active”. The Kd (Nucleic Acid [20]) was 11 mM.
For `Cn1c(N)nc2c(nc(OCc3ccccc3)n2[C@@H]2O[C@H](CO)[C@@H](O)[C@@H]2O)c1=O`, the Activity (Nucleic Acid [21]) was “inactive”.
`C[N+]1(C)CCc2cc(O)c(O)cc2C1Cc1ccc(O)c(O)c1` (stereo unspecified) gave a Kd (Nucleic Acid [1]) of 135000 nM.
With `Cc1cc(N2CCN(C)CC2)n2nc(-c3ccc(Cl)cc3)nc2n1` the Selectivity ratio (Nucleic Acid [11]) was 5, the Kd (Nucleic Acid [2]) was 69 µM and the Selectivity ratio (Nucleic Acid [12]) was 25. The Kd (Nucleic Acid [10]) was 11 µM, the Selectivity ratio (Nucleic Acid [22]) was 7 and the Kd (Nucleic Acid [3]; read-out: Kd) was 58 µM. For the same compound, the Selectivity ratio (Nucleic Acid [23]) was 4, the Activity (Nucleic Acid [24]) was “inactive” and the Tm (Nucleic Acid [14]) was 78.2 °C. The Kd (Nucleic Acid [15]) was 15 µM, the Activity (Nucleic Acid [16]) was “Active” and the Kd (Nucleic Acid [5]) was 276 µM. For the same compound, the Kd (Nucleic Acid [17]; read-out: Kd) was 46 µM, the Kd (Nucleic Acid [25]) was 70 µM and the Kd (Nucleic Acid [20]) was 2.25 mM.
Compound `CN(C)c1ncnc2c1ncn2CCn1cnc2ncnc(N(C)C)c21` has a Kd (Nucleic Acid [26]) of 32 µM.
